This is an account of results in US4588526A, “Bronchodilatory azepino(1,2-A)pyrimidine derivatives and acid addition salts thereof and bronchodilating pharmaceutical compositions containing same” (Chinoin Gyogyszer es Vegyeszeti Termekek Gyara Rt, priority 1982, dated 1986).

A word on the IC50: it is the concentration that inhibits the measured activity by half.

In assay [1] the test system is spasm induced by acetylcholine. As to the kind of experiment: Konzett test, inhibition of spasm induced by acetylcholine. Particulars: guinea-pig Konzett test; for ED50: Cavia porcellus, read-out: ID50 spasm inhibition induced by acetylcholine. In kind it is in vivo, guinea-pigs. Here is the method:
(§1) The activity was determined on the basis of inhibition of spasm induced by three endogenic spasmogenic agents (5-hydroxy-tryptamine histamine, acetyloholine).

Assay [2] relates to spasm induced by histamine. Nature of the assay: Konzett test, inhibition of spasm induced by histamine. In kind it is in vivo, guinea-pigs. As to conditions: guinea-pig Konzett test; for ED50: Cavia porcellus, read-out: ID50 spasm inhibition induced by histamine. Here is the method: as §1
The subject of assay [3] is spasm induced by 5-hydroxy-tryptamine. Nature of the assay: Konzett test, inhibition of spasm induced by 5-hydroxy-tryptamine. In kind it is in vivo, guinea-pigs. As to conditions: guinea-pig Konzett test; for ED50: Cavia porcellus, read-out: ID50 spasm inhibition induced by 5-hydroxy-tryptamine. On the procedure:
as §1

For assay [4] the following is noted: Drugs of the Future 1981, 6, 362; cited from earlier work.
A further assay concerns human bronchus. Nature of the assay: Human bronchus test, inhibition of Carbacol-induced contraction. Particulars: contraction by 1 μmole Carbacol, 37 C; for IC50: amount for 50% inhibition. An excerpt: As a further Example the activity of the compound of the formula IX is illustrated by human bronchus test. Human bronchus obtained surgically was dipped into an oxygenized physiological solution of 37 C. The contraction is induced by 1 μmole Carbacol.

Assay [5] concerns spasm induced by three endogenic spasmogenic agents. Nature of the assay: Konzett test, duration of activity and comparison with known compounds. Particulars: guinea-pig Konzett test; marks all three ID50 values. In kind it is in vivo, guinea-pigs. Here is the method:
The activity of the compounds of the invention was examined by Konzett test (Konzett H. and, Rossler R., Arch. Exp. Path. Pharm., 1940, 195 71) using guinea-pigs. The activity was determined on the basis of inhibition of spasm induced by three endogenic spasmogenic agents (5-hydroxy-tryptamine histamine, acetyloholine).

Take `O=c1c2c(nc3n1CCCCC3)CCC2`: the results for the ED50 in assay [1], in assay [2] and in assay [3] were 3.7 µmol/kg, 6.5 µmol/kg and 13.8 µmol/kg, respectively.

With `O=c1c2ccccc2nc2n1CCCCC2` [6,7,8,9,10,12-hexahydroazepino[2,1-b]quinazoline-12-one], the bronchodilatory activity result in assay [4] is “displays bronchodilatory activity”.

“theophilline anisate [reference compound]”: the “ID50 spasm inhibition induced by acetylcholine” value in assay [1] is 22.0 µmol/kg. Besides, in the assay with human bronchus, half-maximal inhibition (IC50) required 150 µM. For the same molecule, the spasm reduction in the assay with human bronchus (dosage 10^-3.75 mole/1, 177.8 µM) was found to be 64%; with human bronchus (dosage 10^-4 (10^-4.0) mole/1, 100 µM), 28%; in the assay with human bronchus (dosage 10^-4.25 mole/1, 56.23 µM), 10%; in the assay with human bronchus (dosage 10^-4.5 mole/1, 31.62 µM), 5%. In addition, the “ID50 spasm inhibition induced by histamine” value in assay [2] is 14.0 µmol/kg. The “ID50 spasm inhibition induced by 5-hydroxy-tryptamine” value in assay [3] is 14.0 µmol/kg.

With `O=c1c2c(nc3n1CCCCC3)CCCC2` [drawing 10], the “ID50 spasm inhibition induced by acetylcholine” value in assay [1] was determined as 6.3 µmol/kg. The “ID50 spasm inhibition induced by histamine” value in assay [2] is 5.4 µmol/kg. Further, in assay [3], the “ID50 spasm inhibition induced by 5-hydroxy-tryptamine” value was found to be 15.7 µmol/kg.

For `O=c1c2c(nc3n1CCCCC3)CCCC2` [IX], the IC50 in the assay on human bronchus (Homo sapiens) was found to be 5.4 µM. Also, the inhibition at 100 µM in the assay on human bronchus (Homo sapiens, dosage 10^-4 (10^-4.0) mole/1, read-out: spasm reduction) came out at 184%. In addition, the inhibition at 31.62 µM in the assay with human bronchus (Homo sapiens, dosage 10^-4.5 mole/1, read-out: spasm reduction) was found to be 113%. For the same molecule, the inhibition at 10 µM in the assay on human bronchus (Homo sapiens, dosage 10^-5.0 mole/1, read-out: spasm reduction) came out at 48%. The inhibition at 3.162 µM with human bronchus (Homo sapiens, dosage 10^-5.5 mole/1, read-out: spasm reduction) was determined as 23%. In addition, the inhibition at 1 µM with human bronchus (Homo sapiens, dosage 10^-6.0 mole/1, read-out: spasm reduction) is 3%.

As to `O=c1c2ccccc2nc2n1CCCCC2` [drawing 12, reference compound], the ED50 in assay [1] stood at 26.3 µmol/kg; in assay [2] it was 6.2 µmol/kg; in assay [3], 36 µmol/kg.

`O=c1c2c(nc3n1CCCCC3)CCCC2` [drawing 9]: the ED50 in assay [1] was determined as 7.8 µmol/kg; in assay [2], 3.1 µmol/kg. The “duration of activity (footnote x)” value in assay [5] was “long-lasting activity”. Also, the “ID50 spasm inhibition induced by 5-hydroxy-tryptamine” value in assay [3] worked out at 3.0 µmol/kg.
